What was measured:
hERG K+ channel = hERG K+ channel (Homo sapiens, UniProt Q12809); experiment: In vitro blocking of hERG K+ channels (QPatch automated patch-clamp, CHO-K1 cells); format: cell-based; conditions: pH 7.4, at 10 μM, CHOhERG cells, 4 minutes of stimulation, average block on two cells
Procedure: hERG K^+ channels have been cloned from human heart and recombinant channels are stably expressed in CHO-K1 cells (CHOhERG). These cells have been purchased from bSys GmbH (CH-4052 Basel, Switzerland) and are grown in 150 mL culture flasks at 37° C. in 5% CO2. When the cells are ˜100% confluent, they are detached with 0.25% trypsin-EDTA solution and placed in the cell preparation unit of a QPatch automated patch-clamp robot (Sophion Bioscience A/S, 2750 Ballerup, Denmark). Currents through the hERG K^+ channels (IKhERG) are elicited using the following buffer solutions and voltage protocol: • extracellular solution (in mM): [NaCl]=150; [KCl]=4; [CaCl2]=1.2; [MgCl2]=1; [HEPES]=10; pH adjusted to 7.4 with NaOH; • intracellular solution (in mM): [KCl]=140; [NaCl]=10; [MgCl2]=1; [HEPES]=10; [EGTA]=5; [Mg-ATP]=5; […] After the cells have stabilized for a few minutes and the currents are steady, the amplitude of IKhERG is recorded under control conditions. Thereafter, the QPatch robot applies the test compound to the cell at the test concentration and, after 4 minutes of stimulation, the amplitude of IKhERG is recorded under test conditions. The ratio of the two amplitudes is used to define a fractional block and the average block on two cells is used to provide the effect of a given concentration (e.g. 10 μM). If, for a given test compound, a sufficient number of concentrations were tested, an apparent IC50 for inhibition of IKhERG is calculated.

S. aureus A798 = experiment: Bacterial growth minimal inhibitory concentrations (microdilution, cation-adjusted Mueller-Hinton Broth); format: cell-based; conditions: for MIC: Staphylococcus aureus
Procedure: Minimal inhibitory concentrations (MICs; mg/l) were determined in cation-adjusted Mueller-Hinton Broth by a microdilution method following the description given in “Methods for Dilution Antimicrobial Susceptibility Tests for Bacteria that Grow Aerobically”, Approved standard, 7th ed., Clinical and Laboratory Standards Institute (CLSI) Document M7-A7, Wayne, Pa., USA, 2006.

[1] = comparison table of compounds of formula ICOMP

Sequence of hERG K+ channel (Q12809 whole entry): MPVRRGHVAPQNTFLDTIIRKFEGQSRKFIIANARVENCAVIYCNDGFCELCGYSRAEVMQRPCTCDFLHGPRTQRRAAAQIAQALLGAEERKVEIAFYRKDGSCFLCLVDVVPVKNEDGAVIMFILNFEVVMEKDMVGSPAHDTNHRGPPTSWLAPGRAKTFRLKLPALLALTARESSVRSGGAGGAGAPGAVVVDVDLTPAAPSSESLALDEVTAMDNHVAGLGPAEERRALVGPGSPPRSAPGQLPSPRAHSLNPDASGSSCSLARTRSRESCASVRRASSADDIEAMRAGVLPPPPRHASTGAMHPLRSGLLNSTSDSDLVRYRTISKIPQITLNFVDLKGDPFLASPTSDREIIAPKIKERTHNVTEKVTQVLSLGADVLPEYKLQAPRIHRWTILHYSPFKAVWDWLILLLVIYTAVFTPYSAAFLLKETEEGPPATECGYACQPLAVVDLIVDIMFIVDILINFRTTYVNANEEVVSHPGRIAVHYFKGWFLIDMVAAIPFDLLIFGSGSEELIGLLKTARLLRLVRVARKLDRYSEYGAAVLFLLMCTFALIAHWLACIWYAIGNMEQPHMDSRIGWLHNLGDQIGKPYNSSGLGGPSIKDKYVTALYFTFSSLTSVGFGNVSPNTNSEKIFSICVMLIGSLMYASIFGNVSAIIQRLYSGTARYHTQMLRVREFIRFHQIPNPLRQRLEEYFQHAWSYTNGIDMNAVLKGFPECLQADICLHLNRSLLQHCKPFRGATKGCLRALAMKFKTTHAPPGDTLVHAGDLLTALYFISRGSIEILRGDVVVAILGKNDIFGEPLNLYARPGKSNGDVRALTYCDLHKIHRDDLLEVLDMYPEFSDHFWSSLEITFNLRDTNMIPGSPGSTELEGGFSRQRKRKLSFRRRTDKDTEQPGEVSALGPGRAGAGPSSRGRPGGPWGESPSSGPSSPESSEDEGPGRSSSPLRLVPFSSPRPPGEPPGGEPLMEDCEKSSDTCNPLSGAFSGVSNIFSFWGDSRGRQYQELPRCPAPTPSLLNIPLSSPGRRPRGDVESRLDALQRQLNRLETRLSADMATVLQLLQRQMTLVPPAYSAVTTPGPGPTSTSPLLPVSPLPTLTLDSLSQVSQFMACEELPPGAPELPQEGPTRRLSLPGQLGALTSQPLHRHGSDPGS

Row | MIC (S. aureus A798; microdilution) [µg/mL] | MIC for S. aureus A798 (S. aureus A798; [1]) | MIC (S. aureus A798; [1]) [µg/mL] | Structure (SMILES) | inhibition at 4 min, 10 µM (hERG K+ channel) [%]
1 | ≤ 0.031 | ≦0.031 mg/l | – | COc1ccc2ncc(F)c(C[C@H](O)[C@@H]3CC[C@@H](NCc4cc5c(nn4)OCCO5)CO3)c2n1 [Example 4, (1S)-1-{(2S,5R)-5-[(6,7-dihydro-[1,4]dioxino[2,3-c]pyridazin-3-ylmethyl)-amino]-tetrahydro-pyran-2-yl}-2-(3-fluoro-6-methoxy-[1,5]naphthyridin-4-yl)-ethanol] | 5
2 | – | – | ≤ 0.031 | COc1ccc2ncc(F)c(CCC3CCC(NCc4cc5c(cn4)OCCO5)CO3)c2n1 (centres unmarked) [Reference Example No. 1, reference compound] | 77

Reference: patent US8211890B2, “5-amino-2-(1-hydroxy-ethyl)-tetrahydropyran derivatives” (Actelion Pharmaceuticals, priority 2008, dated 2012)
